Test results from patent publication US11109593B2, “Isoxazolin-5-one derivative and herbicide containing same as active ingredient” (HOKKO CHEMICAL INDUSTRY CO., LTD., priority 2017, dated 2021).

Experiments:
Format in all cases: in vivo
Echinochloa crus-galli [1] = experiment: Test Example 1: herbicidal effect test by treatment of rice paddy soil (immediately after seeding); conditions: 120 g/10a active ingredient, dry weight vs untreated area, 14 days after treatment
Procedure, shortened: (§1)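 Values are herbicidal rates (%) derived from average plant dry weight in treated versus untreated pots 14 days after treatment, run in duplicate. Treatment was a water-diluted emulsion dropped into flooded paddy soil right after sowing, at 120 g active ingredient per 10 ares.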

Scirpus juncoides [2] = experiment: as above; conditions: 120 g/10a active ingredient, dry weight vs untreated area, 14 days after treatment
Procedure, shortened: as §1

[3] = test system: broad leaf weeds (Lindernia pyxidaria and Monochoria vaginalis); experiment: as above; conditions: 120 g/10a active ingredient, dry weight vs untreated area, 14 days after treatment
Procedure, shortened: as §1

Echinochloa crus-galli [4] = experiment: Test Example 2: herbicidal effect test by treatment during growing period in paddy rice cultivation (seven days after seeding); conditions: 120 g/10a active ingredient, assessed 14 days after treatment, dry weight vs untreated area
Procedure, shortened: (§2)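 Greenhouse flooded-pot test, seeds sown in puddled paddy soil; emulsion applied into water 7 d after seeding, 120 g a.i./10 a. Dry-weight-based herbicidal rate at 14 d, n=2.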

Scirpus juncoides [5] = experiment: as above; conditions: 120 g/10a active ingredient, assessed 14 days after treatment, dry weight vs untreated area
Procedure, shortened: as §2

[6] = test system: broad leaf weeds (Lindernia pyxidaria and Monochoria vaginalis); experiment: as above; conditions: 120 g/10a active ingredient, assessed 14 days after treatment, dry weight vs untreated area
Procedure, shortened: as §2

Amaranthus viridis [7] = experiment: Test Example 4: herbicidal effect test by treatment of leave and stem in dry field farming (seven days after seeding); conditions: 120 g/10a active ingredient; emulsion sprayed seven days after seeding; evaluated 14 days after treatment
Procedure, shortened: (§3)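 Twenty seeds per species were mixed into the top 1 cm of alluvial soil in 36 cm^2 pots; emulsions were sprayed seven days after seeding at 100 L per 10 ares (120 g active ingredient per 10 ares). Herbicidal rate (%) = {1 − treated/untreated mean dry weight} × 100, 14 days after treatment, duplicate.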

southern crabgrass [8] = experiment: as above; conditions: 120 g/10a active ingredient; emulsion sprayed seven days after seeding; evaluated 14 days after treatment
Procedure, shortened: as §3

Echinochloa crus-galli [9] = experiment: as above; conditions: 120 g/10a active ingredient; emulsion sprayed seven days after seeding; evaluated 14 days after treatment
Procedure, shortened: as §3

Chenopodium album [10] = experiment: as above; conditions: 120 g/10a active ingredient; emulsion sprayed seven days after seeding; evaluated 14 days after treatment
Procedure, shortened: as §3

Amaranthus viridis [11] = experiment: Test Example 3: herbicidal effect test by treatment of dry field farming soil (one day after seeding); conditions: 120 g/10a active ingredient, evaluated 14 days after treatment
Procedure, shortened: (§4)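 Compound emulsions are sprayed on the soil surface one day after sowing (120 g a.i. per 10 ares) before weeds emerge. Effect is expressed as percent dry-weight reduction versus untreated controls 14 days post-treatment.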

southern crabgrass [12] = experiment: as above; conditions: 120 g/10a active ingredient, evaluated 14 days after treatment
Procedure, shortened: as §4

Echinochloa crus-galli [13] = experiment: as above; conditions: 120 g/10a active ingredient, evaluated 14 days after treatment
Procedure, shortened: as §4

Chenopodium album [14] = experiment: as above; conditions: 120 g/10a active ingredient, evaluated 14 days after treatment
Procedure, shortened: as §4

Cc1c(Cc2ccccc2N(C(=O)OCC(C)C)S(=O)(=O)C(F)(F)F)c(=O)on1C [Compound 1-666]
Herbicidal rate (%) Echinochloa crus-galli (Echinochloa crus-galli [1]): 100%
Herbicidal rate (%) Scirpus juncoides (Scirpus juncoides [2]): 90%
Herbicidal rate (%) Lindernia pyxidaria [3]: 80%
Herbicidal rate (%) Monochoria vaginalis [3]: 100%
Herbicidal rate (%) Echinochloa crus-galli (Echinochloa crus-galli [4]): 100%
Herbicidal rate (%) Scirpus juncoides (Scirpus juncoides [5]): 90%
Herbicidal rate (%) Lindernia pyxidaria [6]: 90%
Herbicidal rate (%) Monochoria vaginalis [6]: 90%
herbicidal effect (herbicidal rate), Amaranthus viridis (Amaranthus viridis [7]): 40%
herbicidal effect (herbicidal rate), southern crabgrass (southern crabgrass [8]): 70%
herbicidal effect (herbicidal rate), Echinochloa crus-galli (Echinochloa crus-galli [9]): 90%
herbicidal effect (herbicidal rate), Chenopodium album (Chenopodium album [10]): 50%
herbicidal rate, Amaranthus viridis (Amaranthus viridis [11]): 0%
herbicidal rate, southern crabgrass (southern crabgrass [12]): 100%
herbicidal rate, Echinochloa crus-galli (Echinochloa crus-galli [13]): 90%
herbicidal rate, Chenopodium album (Chenopodium album [14]): 40%

CCC(=O)N(c1ccccc1Cc1c(C)n(CCSC)oc1=O)S(=O)(=O)C(F)(F)F [Compound 1-320]
Herbicidal rate (%) Echinochloa crus-galli (Echinochloa crus-galli [1]): 90%
Herbicidal rate (%) Scirpus juncoides (Scirpus juncoides [2]): 90%
Herbicidal rate (%) Lindernia pyxidaria [3]: 90%
Herbicidal rate (%) Monochoria vaginalis [3]: 90%
Herbicidal rate (%) Echinochloa crus-galli (Echinochloa crus-galli [4]): 90%
Herbicidal rate (%) Scirpus juncoides (Scirpus juncoides [5]): 90%
Herbicidal rate (%) Lindernia pyxidaria [6]: 90%
Herbicidal rate (%) Monochoria vaginalis [6]: 90%
herbicidal effect (herbicidal rate), Amaranthus viridis (Amaranthus viridis [7]): 40%
herbicidal effect (herbicidal rate), southern crabgrass (southern crabgrass [8]): 90%
herbicidal effect (herbicidal rate), Echinochloa crus-galli (Echinochloa crus-galli [9]): 90%
herbicidal effect (herbicidal rate), Chenopodium album (Chenopodium album [10]): 40%
herbicidal rate, Amaranthus viridis (Amaranthus viridis [11]): 90%
herbicidal rate, southern crabgrass (southern crabgrass [12]): 90%
herbicidal rate, Echinochloa crus-galli (Echinochloa crus-galli [13]): 90%
herbicidal rate, Chenopodium album (Chenopodium album [14]): 90%

Cc1c(Cc2cccc(Cl)c2NS(=O)(=O)C(F)(F)F)c(=O)on1C(C)C [Compound 1-33]
Herbicidal rate (%) Echinochloa crus-galli (Echinochloa crus-galli [1]): 80%
Herbicidal rate (%) Scirpus juncoides (Scirpus juncoides [2]): 100%
Herbicidal rate (%) Lindernia pyxidaria [3]: 90%
Herbicidal rate (%) Monochoria vaginalis [3]: 90%
Herbicidal rate (%) Echinochloa crus-galli (Echinochloa crus-galli [4]): 60%
Herbicidal rate (%) Scirpus juncoides (Scirpus juncoides [5]): 80%
Herbicidal rate (%) Lindernia pyxidaria [6]: 60%
Herbicidal rate (%) Monochoria vaginalis [6]: 60%
herbicidal effect (herbicidal rate), Amaranthus viridis (Amaranthus viridis [7]): 0%
herbicidal effect (herbicidal rate), southern crabgrass (southern crabgrass [8]): 40%
herbicidal effect (herbicidal rate), Echinochloa crus-galli (Echinochloa crus-galli [9]): 90%
herbicidal effect (herbicidal rate), Chenopodium album (Chenopodium album [10]): 40%
herbicidal rate, Amaranthus viridis (Amaranthus viridis [11]): 0%
herbicidal rate, southern crabgrass (southern crabgrass [12]): 70%
herbicidal rate, Echinochloa crus-galli (Echinochloa crus-galli [13]): 90%
herbicidal rate, Chenopodium album (Chenopodium album [14]): 40%

Cc1c(Cc2ccccc2NS(=O)(=O)C(F)(F)F)c(=O)on1CCC(C)(C)C [Compound 1-116]
Herbicidal rate (%) Echinochloa crus-galli (Echinochloa crus-galli [1]): 90%
Herbicidal rate (%) Scirpus juncoides (Scirpus juncoides [2]): 90%
Herbicidal rate (%) Lindernia pyxidaria [3]: 90%
Herbicidal rate (%) Monochoria vaginalis [3]: 80%
Herbicidal rate (%) Echinochloa crus-galli (Echinochloa crus-galli [4]): 90%
Herbicidal rate (%) Scirpus juncoides (Scirpus juncoides [5]): 90%
Herbicidal rate (%) Lindernia pyxidaria [6]: 60%
Herbicidal rate (%) Monochoria vaginalis [6]: 80%
herbicidal effect (herbicidal rate), Amaranthus viridis (Amaranthus viridis [7]): 60%
herbicidal effect (herbicidal rate), southern crabgrass (southern crabgrass [8]): 40%
herbicidal effect (herbicidal rate), Echinochloa crus-galli (Echinochloa crus-galli [9]): 80%
herbicidal effect (herbicidal rate), Chenopodium album (Chenopodium album [10]): 50%
herbicidal rate, Amaranthus viridis (Amaranthus viridis [11]): 80%
herbicidal rate, southern crabgrass (southern crabgrass [12]): 90%
herbicidal rate, Echinochloa crus-galli (Echinochloa crus-galli [13]): 90%
herbicidal rate, Chenopodium album (Chenopodium album [14]): 50%

Cc1c(Cc2ccccc2NS(=O)(=O)C(F)(F)F)c(=O)on1C(C)Cc1ccccc1 (stereo not shown) [Compound 1-218]
Herbicidal rate (%) Echinochloa crus-galli (Echinochloa crus-galli [1]): 100%
Herbicidal rate (%) Scirpus juncoides (Scirpus juncoides [2]): 90%
Herbicidal rate (%) Lindernia pyxidaria [3]: 90%
Herbicidal rate (%) Monochoria vaginalis [3]: 90%
Herbicidal rate (%) Echinochloa crus-galli (Echinochloa crus-galli [4]): 90%
Herbicidal rate (%) Scirpus juncoides (Scirpus juncoides [5]): 90%
Herbicidal rate (%) Lindernia pyxidaria [6]: 40%
Herbicidal rate (%) Monochoria vaginalis [6]: 80%
herbicidal effect (herbicidal rate), Amaranthus viridis (Amaranthus viridis [7]): 60%
herbicidal effect (herbicidal rate), southern crabgrass (southern crabgrass [8]): 40%
herbicidal effect (herbicidal rate), Echinochloa crus-galli (Echinochloa crus-galli [9]): 90%
herbicidal effect (herbicidal rate), Chenopodium album (Chenopodium album [10]): 40%
herbicidal rate, Amaranthus viridis (Amaranthus viridis [11]): 40%
herbicidal rate, southern crabgrass (southern crabgrass [12]): 40%
herbicidal rate, Echinochloa crus-galli (Echinochloa crus-galli [13]): 80%
herbicidal rate, Chenopodium album (Chenopodium album [14]): 40%

COCCn1oc(=O)c(Cc2ccccc2NS(=O)(=O)C(F)(F)F)c1C [Compound 1-148]
Herbicidal rate (%) Echinochloa crus-galli (Echinochloa crus-galli [1]): 90%
Herbicidal rate (%) Scirpus juncoides (Scirpus juncoides [2]): 100%
Herbicidal rate (%) Lindernia pyxidaria [3]: 100%
Herbicidal rate (%) Monochoria vaginalis [3]: 90%
Herbicidal rate (%) Echinochloa crus-galli (Echinochloa crus-galli [4]): 90%
Herbicidal rate (%) Scirpus juncoides (Scirpus juncoides [5]): 90%
Herbicidal rate (%) Lindernia pyxidaria [6]: 60%
Herbicidal rate (%) Monochoria vaginalis [6]: 80%
herbicidal effect (herbicidal rate), Amaranthus viridis (Amaranthus viridis [7]): 40%
herbicidal effect (herbicidal rate), southern crabgrass (southern crabgrass [8]): 80%
herbicidal effect (herbicidal rate), Echinochloa crus-galli (Echinochloa crus-galli [9]): 90%
herbicidal effect (herbicidal rate), Chenopodium album (Chenopodium album [10]): 40%
herbicidal rate, Amaranthus viridis (Amaranthus viridis [11]): 80%
herbicidal rate, southern crabgrass (southern crabgrass [12]): 100%
herbicidal rate, Echinochloa crus-galli (Echinochloa crus-galli [13]): 100%
herbicidal rate, Chenopodium album (Chenopodium album [14]): 80%

COCC(C)n1oc(=O)c(Cc2ccccc2N(C(=O)C2CC2)S(=O)(=O)C(F)(F)F)c1C (stereo not shown) [Compound 1-412]
Herbicidal rate (%) Echinochloa crus-galli (Echinochloa crus-galli [1]): 90%
Herbicidal rate (%) Scirpus juncoides (Scirpus juncoides [2]): 90%
Herbicidal rate (%) Lindernia pyxidaria [3]: 90%
Herbicidal rate (%) Monochoria vaginalis [3]: 90%
Herbicidal rate (%) Echinochloa crus-galli (Echinochloa crus-galli [4]): 90%
Herbicidal rate (%) Scirpus juncoides (Scirpus juncoides [5]): 90%
Herbicidal rate (%) Lindernia pyxidaria [6]: 90%
Herbicidal rate (%) Monochoria vaginalis [6]: 90%
herbicidal effect (herbicidal rate), Amaranthus viridis (Amaranthus viridis [7]): 40%
herbicidal effect (herbicidal rate), southern crabgrass (southern crabgrass [8]): 90%
herbicidal effect (herbicidal rate), Echinochloa crus-galli (Echinochloa crus-galli [9]): 90%
herbicidal effect (herbicidal rate), Chenopodium album (Chenopodium album [10]): 40%
herbicidal rate, Amaranthus viridis (Amaranthus viridis [11]): 90%
herbicidal rate, southern crabgrass (southern crabgrass [12]): 90%
herbicidal rate, Echinochloa crus-galli (Echinochloa crus-galli [13]): 90%
herbicidal rate, Chenopodium album (Chenopodium album [14]): 90%

CSCCn1oc(=O)c(Cc2ccccc2N(S(C)(=O)=O)S(=O)(=O)C(F)(F)F)c1C [Compound 1-900]
Herbicidal rate (%) Echinochloa crus-galli (Echinochloa crus-galli [1]): 90%
Herbicidal rate (%) Scirpus juncoides (Scirpus juncoides [2]): 90%
Herbicidal rate (%) Lindernia pyxidaria [3]: 90%
Herbicidal rate (%) Monochoria vaginalis [3]: 90%
Herbicidal rate (%) Echinochloa crus-galli (Echinochloa crus-galli [4]): 90%
Herbicidal rate (%) Scirpus juncoides (Scirpus juncoides [5]): 90%
Herbicidal rate (%) Lindernia pyxidaria [6]: 90%
Herbicidal rate (%) Monochoria vaginalis [6]: 90%
herbicidal effect (herbicidal rate), Amaranthus viridis (Amaranthus viridis [7]): 40%
herbicidal effect (herbicidal rate), southern crabgrass (southern crabgrass [8]): 90%
herbicidal effect (herbicidal rate), Echinochloa crus-galli (Echinochloa crus-galli [9]): 90%
herbicidal effect (herbicidal rate), Chenopodium album (Chenopodium album [10]): 40%
herbicidal rate, Amaranthus viridis (Amaranthus viridis [11]): 90%
herbicidal rate, southern crabgrass (southern crabgrass [12]): 90%
herbicidal rate, Echinochloa crus-galli (Echinochloa crus-galli [13]): 90%
herbicidal rate, Chenopodium album (Chenopodium album [14]): 90%

Cc1c(Cc2ccccc2N(C(=O)CC(C)C)S(=O)(=O)C(F)(F)F)c(=O)on1CC(C)(C)C [Compound 1-355]
Herbicidal rate (%) Echinochloa crus-galli (Echinochloa crus-galli [1]): 90%
Herbicidal rate (%) Scirpus juncoides (Scirpus juncoides [2]): 90%
Herbicidal rate (%) Lindernia pyxidaria [3]: 90%
Herbicidal rate (%) Monochoria vaginalis [3]: 90%
Herbicidal rate (%) Echinochloa crus-galli (Echinochloa crus-galli [4]): 90%
Herbicidal rate (%) Scirpus juncoides (Scirpus juncoides [5]): 90%
Herbicidal rate (%) Lindernia pyxidaria [6]: 90%
Herbicidal rate (%) Monochoria vaginalis [6]: 90%
herbicidal effect (herbicidal rate), Amaranthus viridis (Amaranthus viridis [7]): 40%
herbicidal effect (herbicidal rate), southern crabgrass (southern crabgrass [8]): 90%
herbicidal effect (herbicidal rate), Echinochloa crus-galli (Echinochloa crus-galli [9]): 90%
herbicidal effect (herbicidal rate), Chenopodium album (Chenopodium album [10]): 40%
herbicidal rate, Amaranthus viridis (Amaranthus viridis [11]): 90%
herbicidal rate, southern crabgrass (southern crabgrass [12]): 90%
herbicidal rate, Echinochloa crus-galli (Echinochloa crus-galli [13]): 90%
herbicidal rate, Chenopodium album (Chenopodium album [14]): 90%

CC(=O)N(c1ccccc1Cc1c(C)n(C(C)(C)C)oc1=O)S(=O)(=O)C(F)(F)F [Compound 1-293]
Herbicidal rate (%) Echinochloa crus-galli (Echinochloa crus-galli [1]): 90%
Herbicidal rate (%) Scirpus juncoides (Scirpus juncoides [2]): 90%
Herbicidal rate (%) Lindernia pyxidaria [3]: 90%
Herbicidal rate (%) Monochoria vaginalis [3]: 90%
Herbicidal rate (%) Echinochloa crus-galli (Echinochloa crus-galli [4]): 90%
Herbicidal rate (%) Scirpus juncoides (Scirpus juncoides [5]): 90%
Herbicidal rate (%) Lindernia pyxidaria [6]: 90%
Herbicidal rate (%) Monochoria vaginalis [6]: 90%
herbicidal effect (herbicidal rate), Amaranthus viridis (Amaranthus viridis [7]): 40%
herbicidal effect (herbicidal rate), southern crabgrass (southern crabgrass [8]): 90%
herbicidal effect (herbicidal rate), Echinochloa crus-galli (Echinochloa crus-galli [9]): 90%
herbicidal effect (herbicidal rate), Chenopodium album (Chenopodium album [10]): 40%
herbicidal rate, Amaranthus viridis (Amaranthus viridis [11]): 90%
herbicidal rate, southern crabgrass (southern crabgrass [12]): 90%
herbicidal rate, Echinochloa crus-galli (Echinochloa crus-galli [13]): 90%
herbicidal rate, Chenopodium album (Chenopodium album [14]): 90%
